Measurements from ChEMBL document CHEMBL5365481, “Design, Synthesis, and Activity Evaluation of Novel Dual-Target Inhibitors with Antifungal and Immunoregulatory Properties” (J Med Chem, 2023).
≈ marks a conversion by molar mass, not a printed value.

Tests used:
Format in all cases: functional
Candida albicans [1] = assay: Antifungal activity against Candida albicans ATCC SC5314 assessed as inhibition of fungal growth incubated for 72 hrs by CLSI based liquid medium microdilution method
Cryptococcus neoformans = assay: Antifungal activity against Cryptococcus neoformans ZKCC 2209 assessed as inhibition of fungal growth incubated for 72 hrs by CLSI based liquid medium microdilution method
Aspergillus fumigatus = assay: Antifungal activity against Aspergillus fumigatus KM8001 assessed as inhibition of fungal growth incubated for 72 hrs by CLSI based liquid medium microdilution method
Candida tropicalis = assay: Antifungal activity against Candida tropicalis ATCC 1369 assessed as inhibition of fungal growth incubated for 72 hrs by CLSI based liquid medium microdilution method
Pichia kudriavzevii = assay: Antifungal activity against Candida krusei ATCC 6258 assessed as inhibition of fungal growth incubated for 72 hrs by CLSI based liquid medium microdilution method
Candida albicans [2] = assay: Antifungal activity against fluconazole-resistant Candida albicans CaR assessed as inhibition of fungal growth incubated for 72 hrs by CLSI based liquid medium microdilution method
Candida albicans [3] = assay: Antifungal activity against fluconazole-resistant Candida albicans 901 assessed as inhibition of fungal growth incubated for 72 hrs by CLSI based liquid medium microdilution method
Candida albicans [4] = assay: Antifungal activity against fluconazole-resistant Candida albicans 632 assessed as inhibition of fungal growth incubated for 72 hrs by CLSI based liquid medium microdilution method
Candida albicans [5] = assay: Antifungal activity against fluconazole-resistant Candida albicans 904 assessed as inhibition of fungal growth incubated for 72 hrs by CLSI based liquid medium microdilution method
Candida albicans [6] = assay: Antifungal activity against fluconazole-resistant Candida albicans 17# assessed as inhibition of fungal growth incubated for 72 hrs by CLSI based liquid medium microdilution method

CC(=O)c1ccc(NC(=O)c2nc(-n3cncn3)c3cc(Cl)ccc3n2)cc1
MIC50 (Candida albicans [1]): 0.5 µg/mL (≈ 1.27 µM) | MIC50 (Cryptococcus neoformans): 2 µg/mL (≈ 5.09 µM) | MIC50 (Aspergillus fumigatus): 4 µg/mL (≈ 10.2 µM) | MIC50 (Candida tropicalis): 0.5 µg/mL (≈ 1.27 µM) | MIC50 (Pichia kudriavzevii): 1 µg/mL (≈ 2.55 µM)

O=C(NC1CCCc2ccccc21)c1nc(-n2cncn2)c2cc(Cl)ccc2n1 (stereo not given)
MIC50 (Candida albicans [1]): 2 µg/mL (≈ 4.94 µM) | MIC50 (Cryptococcus neoformans): 2 µg/mL (≈ 4.94 µM) | MIC50 (Aspergillus fumigatus): > 8 µg/mL | MIC50 (Candida tropicalis): 2 µg/mL (≈ 4.94 µM) | MIC50 (Pichia kudriavzevii): > 8 µg/mL

O=C(NC1CCN(C(=O)c2ccccc2)CC1)c1nc(-n2ccnc2)c2ccccc2n1
MIC50 (Candida albicans [1]): 1 µg/mL (≈ 2.34 µM) | MIC50 (Cryptococcus neoformans): 2 µg/mL (≈ 4.69 µM) | MIC50 (Aspergillus fumigatus): > 8 µg/mL | MIC50 (Candida tropicalis): 1 µg/mL (≈ 2.34 µM) | MIC50 (Pichia kudriavzevii): 2 µg/mL (≈ 4.69 µM)

CC(=O)N1CCN(c2ccc(OCC3COC(Cn4ccnc4)(c4ccc(Cl)cc4Cl)O3)cc2)CC1 (stereo not given) [KETOCONAZOLE]
MIC50 (Candida albicans [1]): 2 µg/mL (≈ 3.76 µM) | MIC50 (Candida albicans [2]): 4 µg/mL (≈ 7.53 µM) | MIC50 (Cryptococcus neoformans): 1 µg/mL (≈ 1.88 µM) | MIC50 (Aspergillus fumigatus): 4 µg/mL (≈ 7.53 µM) | MIC50 (Candida albicans [3]): 4 µg/mL (≈ 7.53 µM) | MIC50 (Candida albicans [4]): > 8 µg/mL | MIC50 (Candida tropicalis): 0.5 µg/mL (≈ 0.941 µM) | MIC50 (Pichia kudriavzevii): 1 µg/mL (≈ 1.88 µM) | MIC50 (Candida albicans [5]): > 8 µg/mL | MIC50 (Candida albicans [6]): 2 µg/mL (≈ 3.76 µM)

CC(=O)c1ccc(NC(=O)c2nc(-n3ccnc3)c3cc(Cl)ccc3n2)cc1
MIC50 (Candida albicans [1]): 1 µg/mL (≈ 2.55 µM) | MIC50 (Cryptococcus neoformans): 2 µg/mL (≈ 5.1 µM) | MIC50 (Aspergillus fumigatus): > 8 µg/mL | MIC50 (Candida tropicalis): 1 µg/mL (≈ 2.55 µM) | MIC50 (Pichia kudriavzevii): 4 µg/mL (≈ 10.2 µM)

O=C(NCc1ccccc1)c1nc(-n2cncn2)c2cc(Cl)ccc2n1
MIC50 (Candida albicans [1]): 1 µg/mL (≈ 2.74 µM) | MIC50 (Cryptococcus neoformans): 1 µg/mL (≈ 2.74 µM) | MIC50 (Aspergillus fumigatus): 2 µg/mL (≈ 5.48 µM) | MIC50 (Candida tropicalis): 1 µg/mL (≈ 2.74 µM) | MIC50 (Pichia kudriavzevii): 0.5 µg/mL (≈ 1.37 µM)

COc1ccc(C(=O)N2CCC(NC(=O)c3nc(-n4ccnc4)c4ccccc4n3)CC2)cc1
MIC50 (Candida albicans [1]): 2 µg/mL (≈ 4.38 µM) | MIC50 (Cryptococcus neoformans): 1 µg/mL (≈ 2.19 µM) | MIC50 (Aspergillus fumigatus): 4 µg/mL (≈ 8.76 µM) | MIC50 (Candida tropicalis): 1 µg/mL (≈ 2.19 µM) | MIC50 (Pichia kudriavzevii): 2 µg/mL (≈ 4.38 µM)

CS(=O)(=O)c1ccc(NC(=O)c2nc(-n3cncn3)c3ccccc3n2)cc1
MIC50 (Candida albicans [1]): 1 µg/mL (≈ 2.54 µM) | MIC50 (Cryptococcus neoformans): 2 µg/mL (≈ 5.07 µM) | MIC50 (Aspergillus fumigatus): 4 µg/mL (≈ 10.1 µM) | MIC50 (Candida tropicalis): 2 µg/mL (≈ 5.07 µM) | MIC50 (Pichia kudriavzevii): 2 µg/mL (≈ 5.07 µM)

CC(=O)c1ccc(C(=O)N2CCC(NC(=O)c3nc(-n4ccnc4)c4ccccc4n3)CC2)cc1
MIC50 (Candida albicans [1]): 2 µg/mL (≈ 4.27 µM) | MIC50 (Cryptococcus neoformans): 2 µg/mL (≈ 4.27 µM) | MIC50 (Aspergillus fumigatus): 4 µg/mL (≈ 8.54 µM) | MIC50 (Candida tropicalis): 0.5 µg/mL (≈ 1.07 µM) | MIC50 (Pichia kudriavzevii): 1 µg/mL (≈ 2.13 µM)

O=C(NC1CCCc2ccccc21)c1nc(-n2cncn2)c2ccccc2n1 (stereo not given)
MIC50 (Candida albicans [1]): 2 µg/mL (≈ 5.4 µM) | MIC50 (Cryptococcus neoformans): 4 µg/mL (≈ 10.8 µM) | MIC50 (Aspergillus fumigatus): > 8 µg/mL | MIC50 (Candida tropicalis): 1 µg/mL (≈ 2.7 µM) | MIC50 (Pichia kudriavzevii): 2 µg/mL (≈ 5.4 µM)

COc1ccc(C(=O)N2CCC(NC(=O)c3nc(-n4cncn4)c4ccccc4n3)CC2)cc1
MIC50 (Candida albicans [1]): 0.5 µg/mL (≈ 1.09 µM) | MIC50 (Cryptococcus neoformans): 1 µg/mL (≈ 2.19 µM) | MIC50 (Aspergillus fumigatus): 2 µg/mL (≈ 4.37 µM) | MIC50 (Candida tropicalis): 0.5 µg/mL (≈ 1.09 µM) | MIC50 (Pichia kudriavzevii): 0.5 µg/mL (≈ 1.09 µM)
